The values below come from patent US20250215029A1 (Recludix Pharma, Inc., priority 2022, published 2025).

Like-named read-outs stand apart in the source and are kept apart here.

One assay concerns the target T1, pY705-STAT3 in PBMC (Homo sapiens, UniProt P40763).
T1 construct: Cryopreserved Peripheral Blood Mononuclear Cells (PBMC) are from AllCells; host or cells: cryopreserved PBMC
Kind of assay: MSD-pSTAT-PBMC Assay (pSTAT3, IL-6 stimulated). It counts as cell-based. Particulars: PBMC, compound 3 hrs, then 10 ng/mL IL-6 for 10 min. The method, boiled down: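 Inhibition of cytokine-induced STAT phosphorylation was measured in recovered human PBMC after 3 hrs compound exposure and a 10 min IL-4 (1 ng/mL) or IL-6 (10 ng/mL) challenge. MSD detection of pY641-STAT6 or pY705-STAT3 yielded IC50 values.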

Another assay has as its target T2, pY641-STAT6 in PBMC (Homo sapiens, UniProt P42226).
T2 construct: Cryopreserved Peripheral Blood Mononuclear Cells (PBMC) are from AllCells; host or cells: cryopreserved PBMC
T2 sequence (P42226 1-847): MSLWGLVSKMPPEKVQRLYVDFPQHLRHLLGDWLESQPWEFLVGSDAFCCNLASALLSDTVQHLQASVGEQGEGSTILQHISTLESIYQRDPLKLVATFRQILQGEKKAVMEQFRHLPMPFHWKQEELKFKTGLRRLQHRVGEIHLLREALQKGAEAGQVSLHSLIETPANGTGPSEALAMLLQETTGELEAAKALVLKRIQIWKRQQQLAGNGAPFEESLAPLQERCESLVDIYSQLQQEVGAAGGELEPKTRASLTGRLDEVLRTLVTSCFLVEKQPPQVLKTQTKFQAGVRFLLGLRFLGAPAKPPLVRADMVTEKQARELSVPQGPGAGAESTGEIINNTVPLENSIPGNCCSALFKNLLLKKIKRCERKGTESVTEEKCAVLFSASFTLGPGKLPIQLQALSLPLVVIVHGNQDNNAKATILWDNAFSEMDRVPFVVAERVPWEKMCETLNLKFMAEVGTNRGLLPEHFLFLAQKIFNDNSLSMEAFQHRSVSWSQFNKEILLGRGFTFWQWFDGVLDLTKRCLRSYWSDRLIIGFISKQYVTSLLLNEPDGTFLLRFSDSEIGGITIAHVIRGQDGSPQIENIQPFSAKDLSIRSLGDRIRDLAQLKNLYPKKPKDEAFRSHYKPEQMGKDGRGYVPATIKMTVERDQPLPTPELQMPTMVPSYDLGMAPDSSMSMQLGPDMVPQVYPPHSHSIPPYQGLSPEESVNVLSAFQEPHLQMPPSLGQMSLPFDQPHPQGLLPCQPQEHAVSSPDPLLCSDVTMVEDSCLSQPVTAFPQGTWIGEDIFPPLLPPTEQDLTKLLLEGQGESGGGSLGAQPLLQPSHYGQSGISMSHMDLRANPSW
Kind of assay: MSD-pSTAT-PBMC Assay (pSTAT6, IL-4 stimulated). The class given is cell-based. The note with it: compound 3 hrs, then 1 ng/mL IL-4 for 10 min. In short, it runs like this:
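Thawed human PBMC rested overnight in IMDM/10% FBS, then got compound for 3 hrs before a 10 min cytokine pulse: 1 ng/mL IL-4 for pSTAT6, 10 ng/mL IL-6 for pSTAT3. Lysates went to MSD sandwich capture on total STAT6 or STAT3 with phospho-specific detection. IC50 came from background-subtracted, DMSO-normalized signal.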

Setting [1] is: PBMC, Table 1114, read-out: pSTAT6.

T1 sequence (P40763 whole entry): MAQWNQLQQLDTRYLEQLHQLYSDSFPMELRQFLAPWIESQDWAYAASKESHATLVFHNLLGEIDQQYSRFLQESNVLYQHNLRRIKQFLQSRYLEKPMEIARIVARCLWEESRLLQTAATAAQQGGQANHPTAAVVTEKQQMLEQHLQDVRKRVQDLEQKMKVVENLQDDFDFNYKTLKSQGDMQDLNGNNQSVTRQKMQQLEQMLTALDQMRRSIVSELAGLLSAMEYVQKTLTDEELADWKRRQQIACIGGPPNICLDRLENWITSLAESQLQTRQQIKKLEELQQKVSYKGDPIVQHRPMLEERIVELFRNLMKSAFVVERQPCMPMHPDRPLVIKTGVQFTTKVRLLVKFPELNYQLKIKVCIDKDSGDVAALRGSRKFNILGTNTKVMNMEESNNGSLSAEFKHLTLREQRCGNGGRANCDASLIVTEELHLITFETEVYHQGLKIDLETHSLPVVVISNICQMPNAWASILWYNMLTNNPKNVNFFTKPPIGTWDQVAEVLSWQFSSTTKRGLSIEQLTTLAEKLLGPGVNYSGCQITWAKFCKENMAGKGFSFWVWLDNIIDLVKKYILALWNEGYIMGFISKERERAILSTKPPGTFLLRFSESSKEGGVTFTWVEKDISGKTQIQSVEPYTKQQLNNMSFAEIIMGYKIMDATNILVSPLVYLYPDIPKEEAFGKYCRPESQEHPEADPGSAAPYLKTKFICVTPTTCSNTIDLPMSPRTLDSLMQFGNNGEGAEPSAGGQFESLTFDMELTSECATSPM

As to `CC(C)(C)C(=O)SCCOP(=O)(OCCSC(=O)C(C)(C)C)C(F)(F)c1ccc2sc(C(=O)N[C@H]3CCCC[C@H]4CC[C@@H](C(=O)N5CC(c6c[nH]cn6)C5)N4C3=O)cc2c1` [Compound 182, S,S′-(((3S,6S,10aS)-3-(3-(1H-imidazol-4-yl)azetidine-1-carbonyl)-5-oxodecahydropyrrolo [1,2-a]azocin-6-yl)carbamoyl)benzo[b] thiophen-5-yl) difluoromethyl) phosphoryl)bis(oxy)) bis(ethane-2,1-diyl)) bis(2,2-dimethylpropanethioate)], the IC50 at pY705-STAT3 in PBMC (Table 1114, read-out: pSTAT3) was under 100 nM; at pY641-STAT6 in PBMC (setting [1]), 1000 to 3000 nM.

For `CC(C)(C)C(=O)OCOP(=O)(OCOC(=O)C(C)(C)C)C(F)(F)c1ccc2sc(C(=O)N[C@@]3(C)CCCC[C@H]4CC[C@@H](C(=O)N5CC(C(=O)N6CCOCC6)C5)N4C3=O)cc2c1` [Compound 186, (((difluoro(2-(((3S,6S, 10aS)-6-methyl-3-(3-(morpholine-4-carbonyl)azetidine-1-carbonyl)-5-oxodeca-hydropyrrolo [1,2-a]azocin-6-yl)carbamoyl)benzo[b]thiophen-5-yl)methyl)phosphoryl)bis (oxy))bis (methylene) bis(2,2-dimethyl-propanoate)], the IC50 on pY705-STAT3 in PBMC (Table 1114, read-out: pSTAT3) is under 100 nM; on pY641-STAT6 in PBMC (setting [1]) it was over 3000 nM.

With `CC(C)(C)C(=O)OCOP(=O)(OCOC(=O)C(C)(C)C)C(F)(F)c1ccc2sc(C(=O)N[C@H]3CCC[C@H]4CC[C@@H](C(=O)N5CC(C(=O)N6CCOCC6)C5)N4C3=O)cc2c1` [Compound 187, (((difluoro(2-(((3S,6S,9aS)-3-(3-(morpholine-4-carbonyl)azetidine-1-carbonyl)-5-oxooctahydro-1H-pyrrolo[1,2-a]azepin-6-yl)carbamoyl)benzo[b]thiophen-5-yl)methyl)phosphoryl)bis (oxy))bis (methylene) bis(2,2-dimethyl-propanoate)], the IC50 is under 100 nM on pY705-STAT3 in PBMC (Table 1114, read-out: pSTAT3) and 1000 to 3000 nM at pY641-STAT6 in PBMC (setting [1]).

As for `CC(C)(C)C(=O)OCOP(=O)(OCOC(=O)C(C)(C)C)C(F)(F)c1ccc2sc(C(=O)N[C@H]3CCC[C@H]4CC[C@@H](C(=O)N5CC(c6ccccn6)C5)N4C3=O)cc2c1` [Compound 188, (((difluoro(2-(((3S,6S,9aS)-5-oxo-3-(3-(pyridin-2-yl)azetidine-1-carbonyl)octahydro-1H-pyrrolo[1,2-a]azepin-6-yl)carbamoyl)benzo[b]thiophen-5-yl)methyl)phosphoryl)bis (oxy))bis (methylene) bis(2,2-dimethyl-propanoate)], the IC50 on pY705-STAT3 in PBMC (Table 1114, read-out: pSTAT3) is under 100 nM; on pY641-STAT6 in PBMC (setting [1]), 100 to 1000 nM.

Take `CC(C)(C)C(=O)OCOP(=O)(OCOC(=O)C(C)(C)C)C(F)(F)c1ccc2sc(C(=O)N[C@H]3CCC[C@H]4CC[C@@H](C(=O)N5CC(c6cccnc6)C5)N4C3=O)cc2c1` [Compound 189, (((difluoro(2-(((3S,6S,9aS)-5-oxo-3-(3-(pyridin-3-yl)azetidine-1-carbonyl)octahydro-1H-pyrrolo[1,2-a]azepin-6-yl)carbamoyl)benzo[b]thiophen-5-yl)methyl)phosphoryl)bis (oxy))bis (methylene) bis(2,2-dimethyl-propanoate)]: the IC50 at pY705-STAT3 in PBMC (Table 1114, read-out: pSTAT3) is under 100 nM; on pY641-STAT6 in PBMC (setting [1]), over 3000 nM.

As for `CC(C)(C)C(=O)OCOP(=O)(OCOC(=O)C(C)(C)C)C(F)(F)c1ccc2sc(C(=O)N[C@H]3CCCC[C@H]4CC[C@@H](C(=O)N5CC6(CN(C(=O)Cc7ccccc7)C6)C5)N4C3=O)cc2c1` [Compound 191, (((difluoro(2-(((3S,6S,10aS)-5-oxo-3-(6-(2-phenylacetyl)-2,6-diazaspiro[3. 3]heptane-2-carbonyl)decahydro-pyrrolo [1,2-a]azocin-6-yl)carbamoyl)benzo[b]thiophen-5-yl)methyl)phosphoryl)bis (oxy))bis (methylene) bis(2,2-dimethyl-propanoate)], the IC50 at pY705-STAT3 in PBMC (Table 1114, read-out: pSTAT3) was under 100 nM; on pY641-STAT6 in PBMC (setting [1]), 100 to 1000 nM.

Turning to `CC(C)(C)C(=O)OCOP(=O)(OCOC(=O)C(C)(C)C)C(F)(F)c1ccc2sc(C(=O)N[C@H]3CCCC[C@H]4CC[C@@H](C(=O)N5CCN(C(=O)c6cn[nH]c6)CC5)N4C3=O)cc2c1` [Compound 192, ((((2-(((3S,6S,10aS)-3-(4-(1H-pyrazole-4-carbonyl)piperazine-1-carbonyl)-5-oxodecahydro-pyrrolo[1,2-a]azocin-6-yl)carbamoyl)benzo[b]thiophen-5-yl)difluoro-methyl)phos-phoryl)bis(oxy)) bis(methylene) bis(2,2-dimethyl-propanoate)], the IC50 on pY705-STAT3 in PBMC (Table 1114, read-out: pSTAT3) fell in the range of 100 to 1000 nM; on pY641-STAT6 in PBMC (setting [1]) it was 1000 to 3000 nM.

Regarding `CC(C)OC(=O)[C@H](C)NP(=O)(Cc1ccc2sc(C(=O)N[C@H]3CCC[C@H]4CC[C@@H](C(=O)N5CC(c6cccnc6)C5)N4C3=O)cc2c1)Oc1ccccc1` (stereo partly drawn) [Compound 195, isopropyl (((2-(((3S,6S,9aS)-5-oxo-3-(3-(pyridin-3-yl)azetidine-1-carbonyl)octa-hydro-1H-pyrrolo[1,2-a]azepin-6-yl)carbamoyl)benzo[b]thiophen-5-yl)methyl) (phenoxy)phosphoryl)-L-alaninate], the IC50 is 100 to 1000 nM at pY705-STAT3 in PBMC (Table 1114, read-out: pSTAT3) and over 3000 nM on pY641-STAT6 in PBMC (pSTAT6, PBMC, Table 1114).

As for `CC(C)OC(=O)[C@H](C)NP(=O)(Oc1ccccc1)C(F)c1ccc2sc(C(=O)N[C@H]3CCC[C@H]4CC[C@@H](C(=O)N5CC(c6cccnc6)C5)N4C3=O)cc2c1` (stereo partly drawn) [Compound 196, isopropyl ((fluoro(2-(((3S,6S,9aS)-5-oxo-3-(3-(pyridin-3-yl)azetidine-1-carbonyl)octahydro-1H-pyrrolo[1,2-a]azepin-6-yl)carbamoyl)benzo[b]thiophen-5-yl)methyl) (phenoxy)phosphoryl)-L-alaninate], the IC50 was 100 to 1000 nM at pY705-STAT3 in PBMC (Table 1114, read-out: pSTAT3) and over 3000 nM against pY641-STAT6 in PBMC (pSTAT6, PBMC, Table 1114).

Turning to `CC(C)(CO)C(=O)SCCOP(=O)(Oc1ccccc1)C(F)(F)c1ccc2sc(C(=O)N[C@H]3CCC[C@H]4CC[C@@H](C(=O)N5CC(c6cccnc6)C5)N4C3=O)cc2c1` (stereo partly drawn) [Compound 201, S-(2-(((difluoro(2-(((3S,6S,9aS)-5-oxo-3-(3-(pyridin-3-yl)azetidine-1-carbonyl)octahydro-1H-pyrrolo[1,2-a]azepin-6-yl)carbamoyl)benzo[b]thiophen-5-yl)methyl) (phenoxy)phosphoryl)oxy)ethyl) 3-hydroxy-2,2-dimethyl-propanethioate], the IC50 on pY705-STAT3 in PBMC (Table 1114, read-out: pSTAT3) was 100 to 1000 nM; on pY641-STAT6 in PBMC (pSTAT6, PBMC, Table 1114), over 3000 nM.

Take `CC(C)(C)C(=O)OCOP(=O)(OCOC(=O)C(C)(C)C)C(F)(F)c1ccc2sc(C(=O)N[C@H]3CCCC4CC[C@@H](C(=O)N5CC(N6CCOCC6)C5)N4C3=O)cc2c1` (stereo partly drawn) [Compound 249, (((difluoro(2-(((3S,6S)-3-(3-morpholinoazetidine-1-carbonyl)-5-oxooctahydro-1H-pyrrolo[1,2-a]azepin-6-yl)carbamoyl)benzo [b]thiophen-5-yl)methyl)phosphoryl)bis(oxy))bis (methylene) bis(2,2-dimethylpropanoate)]: the IC50 at pY705-STAT3 in PBMC (Table 115, read-out: STAT3) was under 100 nM; at pY641-STAT6 in PBMC (PBMC, Table 115, read-out: STAT6), 100 to 1000 nM.

With `CCCOC(=O)[C@H](C)NP(=O)(Cc1ccc2sc(C(=O)N[C@H]3CCC[C@H]4CC[C@@H](C(=O)N5CCC(c6cccnc6)C5)N4C3=O)cc2c1)Oc1ccccc1` (stereo partly drawn) [Compound 252, propyl (((2-(((3S,6S,9aS)-5-oxo-3-(3-(pyridin-3-yl)pyrrolidine-1-carbonyl)octahydro-1H-pyrrolo[1,2-a]azepin-6-yl)carbamoyl)benzo [b]thiophen-5-yl)methyl)(phenoxy)phosphoryl)-L-alaninate], the IC50 at pY705-STAT3 in PBMC (Table 115, read-out: STAT3) lay in the range of 1000 to 3000 nM; against pY641-STAT6 in PBMC (STAT6, PBMC, Table 115) it was 100 to 1000 nM.
